Structures are written as SMILES.

The values below come from patent US10682372B2, “Intracellular ATP enhancer” (StaGen Co., Ltd., priority 2015, dated 2020).

The conditions of test [1]: high-dose administration; cited from earlier work.
Test [2] concerns model mouse of amyotrophic lateral sclerosis. The note with it: model mouse of ALS; cited from earlier work.
For test [3] the following is noted: in vivo; cited from earlier work.
Test [4] can be described thus: Clinical test Phase II: urinary purine concentration. In kind it is in vivo, Human.
The conditions of test [5]: in vivo; cited from earlier work. The source holds these as a separate data set.
The next test concerns erythrocytes. The note with it: erythrocytes kept at low temperature for 20 to 30 days, one hour after addition of inosine; cited from earlier work.
Test [6] can be described thus: Clinical test Phase II: serum uric acid value. The format is in vivo, Human. Here is the method: (§1) The following administration test was conducted for 16 Japanese healthy adult males, one subject in Phase I and 15 subjects which divided into Groups of A to E for each groups 3 subjects in phase II.
(§2) After the end of Phase I, administration was performed to three subjects of each of the groups as follows:
(§3) Group A: febuxostat 20 mg twice a day for 14 days;
(§4) Group B: inosine 500 mg twice a day for 14 days;
(§5) Group C: febuxostat 20 mg+inosine 500 mg twice a day for 14 days;
(§6) Group D: febuxostat 20 mg+inosine 1000 mg twice a day for 14 days; and
(§7) Group E: febuxostat 30 mg twice a day for 14 days.

Test [7] can be described thus: Clinical test Phase II: blood purine concentration. In kind it is in vivo, Human. The note with it: for ATP concentration in blood, change: Week 0 to Week 2; for inosine concentration in blood, change: any groups (Groups A to E). Here is the method: Various purines in peripheral blood were measured according to Reference (1). Briefly, peripheral blood was collected with EDTA, mixed with 500 μL+500 μL ice cold 8% PCA, immediately vortexed for five seconds, and centrifuged at 12,000×g for 10 minutes at 4° C., and the supernatant was stored at −80° C. The sample was dissolve in a gathered state, and 40 μL of 2M K2CO3 in 6 M KOH was added to 650 μL of the solution to precipitate PCA and neutralize the solution at the same time. After this solution was centrifuged at 12,000×g for 10 minutes at 4° C., 160 μL of a mobile phase was added to 40 μL of supernatant and apply to HPLC. The conditions of HPLC were also set according to Reference (1) below. The amounts of purines are expressed in molar quantity contained in 1 L of whole blood.
as §1, §2, §3, §4, §5, §6, §7

The nature of test [8]: Clinical test Phase II: urinary uric acid concentration/creatinine concentration. To be noted: Week 0 to Week 2. The format is in vivo, Human. Here is the method: Since the urinary uric acid concentration varies with urine volume, a urinary uric acid amount was evaluated by using a urinary uric acid/creatinine value acquired by dividing by urinary creatinine concentration. The measurement method of the uric acid value was the same as Test Example 1.
as §1, §2, §3, §4, §5, §6, §7

The nature of test [9]: Second administration test: serum uric acid value, single and combined administration. The format is in vivo, Human. Here is the method:
(1) The subject of administration was the same as Test Example 1.
After a sufficient period had elapsed from completion of Test Example 1, febuxostat was administered again at 40 mg/day to the patient, and the serum uric acid value was measured three days later. Subsequently, febuxostat was discontinued and, after a while, administration of 2 g/day of inosine was started (administered at 1 g each after breakfast and dinner) and was followed by combined use of 2 g/day of inosine and 40 mg of febuxostat (administered at 20 mg each after breakfast and dinner). The serum uric acid value was measured at time points shown on the horizontal axis of FIG. 4.

Test [10] in a line: First administration test: serum uric acid value (uricase-peroxidase method). In kind it is in vivo, Human. Here is the method:
For a clinical chemistry automatic analyzer, a dry clinical chemistry analysis measuring unit manufactured by ARKRAY, Inc. was used, and the serum uric acid value was measured by using the uricase-peroxidase method. A first clinical test was conducted by first administering febuxostat at 40 mg/day (single administration of febuxostat), after a while, additionally administering inosine (combined administration of febuxostat and inosine), and gradually increasing the dosage of inosine from 0.5 to 3 g/day. Meanwhile, blood was collected at the timing shown on the horizontal axis of FIG. 2 to measure the serum uric acid value.

The mark [11] stands for this setting: Week 0 to Week 2, single administration of inosine.
Where [12] appears, read: Week 0 to Week 2, single administration of febuxostat.
The mark [13] stands for this setting: Group A febuxostat 40 mg/day alone.
Where [14] appears, read: febuxostat 60 mg/day single administration.

In the case of `Oc1ncnc2[nH]ncc12` [allopurinol], the “symptoms of chronic stable angina” value in [1] is given as “suppressed”. Moreover, the “disease progression of amyotrophic lateral sclerosis” value in test [2] was “did not inhibit the disease progression”.
With `OC[C@H]1O[C@@H](n2cnc3c(O)ncnc32)[C@H](O)[C@@H]1O` [inosine], in [3], the “symptoms of multiple sclerosis” value is recorded as “alleviates symptoms”. Also, the “maximum concentration of urinary X” value in test [4] (Group B: inosine 500 mg twice a day) amounted to 61.9 µM. For the same molecule, in test [4] (setting [11]), the “urinary Hx, change” value was “no rise” and the “urinary X, change” value is “no rise”. Also, the “symptoms of Parkinson's disease” value in test [5] is listed as “alleviates symptoms”. Further, in the test with erythrocytes, the ATP in erythrocytes result is on record as “ATP increased”. Moreover, in test [6] (Group B: inosine 500 mg twice a day for 14 days), the “serum uric acid value, highest observed” value is given as “up to 8.1 mg/dL”. Further, in test [6] (Group B: inosine 1 g per day, without febuxostat), the “rise of serum uric acid value on average” value stood at 2.57 mg/dL. Moreover, in test [7] (Group B inosine 1 g/day alone), the “Hx (hypoxanthine) concentration in blood, change” value was “neither Hx nor X changed” and the “X (xanthine) concentration in blood, change” value is on record as “neither Hx nor X changed”. Also, in test [7] (Group B inosine 1 g/day), the “ATP concentration in blood, change” value is on record as “not changed”. Further, the “inosine concentration in blood, change” value in test [7] was “no rise”. In addition, the “urinary uric acid/creatinine, change” value in [8] (Group B inosine alone) is “significantly increased”. In addition, the “serum uric acid value” in [9] (inosine 2 g/day (1 g after breakfast and dinner), six days later, 8.3 mg/dL before) is 13.4 mg/dL. The “rise of serum uric acid value” in test [9] (inosine 2 g/day alone) was 5.1 mg/dL. In [9] (inosine alone), the “rise of serum uric acid value per 1 g/day administration of inosine” value stood at 2.55 mg/dL.
Regarding `Cc1nc(-c2ccc(OCC(C)C)c(C#N)c2)sc1C(=O)O` [febuxostat], the “serum uric acid value” in [10] (febuxostat 40 mg/day single administration, 2014.07.12, 8.4 mg/dL before (2014.07.05)) turned out to be 4.7 mg/dL; in test [10] (febuxostat 40 mg/day, 0 g inosine, 2014.08.23), 4.9 mg/dL; in test [9] (three days from febuxostat 40 mg/day (20150515), 8.2 mg/dL before (20150501)), 4.8 mg/dL. The “reduction of serum uric acid value” in [10] (febuxostat 40 mg/day, previous (first) test) was 3.7 mg/dL; in test [6] (Group A: febuxostat 20 mg twice a day for 14 days) it was 2.53 mg/dL; in test [6] (Group E: febuxostat 30 mg twice a day for 14 days), 3.93 mg/dL; in test [9] (three days from febuxostat 40 mg/day), 3.4 mg/dL. Besides, the figures for the “maximum concentration of urinary X” value in test [4] (Group A: febuxostat 20 mg twice a day) and in test [4] (Group E: febuxostat 30 mg twice a day) were 556.0 µM and 867.7 µM, respectively. Besides, in [4] (setting [12]), the “urinary Hx, change” value is recorded as “moderate rise”. Moreover, the “urinary X concentration, change” value in test [4] (setting [12]) is reported as “significantly increased”. Besides, the “serum uric acid value, lowest observed” value in test [6] (Group E: febuxostat 60 mg/day) is recorded as “less than 2 mg/dL”. In addition, the “serum uric acid value, lower limit observed” value in test [6] (any of the administration examples of 40 mg/day of febuxostat) was at least 2 mg/dL. In addition, the “Hx (hypoxanthine) concentration in blood, change” value is on record as “unchanged” in [7] (setting [13]) and “slight rise” in [7] (setting [14]). For the same molecule, the “X (xanthine) concentration in blood, change” value in test [7] (setting [13]) is listed as “significantly increased”; in test [7] (setting [14]), “rise”. For the same molecule, the entries for the “ATP concentration in blood, change” value in test [7] (Group A febuxostat 40 mg/day) and in [7] (Group E febuxostat 60 mg/day) were “not changed” and “No certain tendency was observed”, respectively. Besides, the “inosine concentration in blood, change” value in [7] was “no rise”. The “disease progression of amyotrophic lateral sclerosis” value in [2] is on record as “inhibits disease progression”. In addition, the “urinary uric acid/creatinine, change” value in test [8] (febuxostat alone (Groups A and E)) is “reduced”. Besides, the “suppression by febuxostat of the serum uric acid increasing action of inosine” value in test [9] (febuxostat 40 mg/day, remaining share of the increase) is 22.4%.
